Measurements: patent publication US9376420B2 (YUHAN CORPORATION, priority 2012, dated 2016)

Molecular target: T1, human LXRβ (Homo sapiens, UniProt P55055)
T1 construct: expressed in transfected cells; host or cells: HEK293 cells (ATCC CRL-1573), transient transfection with pFA-hLXRβ/GAL4 and pUAS
T1 sequence (P55055 222-460 limits assumed): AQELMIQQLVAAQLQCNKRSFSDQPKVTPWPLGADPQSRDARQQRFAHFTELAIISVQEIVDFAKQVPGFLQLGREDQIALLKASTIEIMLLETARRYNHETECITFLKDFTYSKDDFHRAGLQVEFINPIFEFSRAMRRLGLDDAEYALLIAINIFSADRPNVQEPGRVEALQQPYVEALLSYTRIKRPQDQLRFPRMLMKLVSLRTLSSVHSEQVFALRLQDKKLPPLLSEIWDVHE
Assay: Assay for Transcriptional Activity of LXRβ (GAL4-hLXRβ LBD luciferase reporter, transient transfection)
Type: cell-based
Conditions: HEK293 cells transfected with pFA-hLXRβ/GAL4 and pUAS, 24 hours; for Emax: fold value in comparison with the control (DMSO-treated group); for EC50: increase of transcriptional activity of LXRβ, average of three independent tests
How it was run: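 HEK293 cells transiently co-transfected with GAL4-hLXRβ LBD and 5×GAL4-UAS luciferase reporter, treated 24 h at 37 °C with compounds over 9 points (0.01–50 μM, half-log). Luminescence read after lysis; EC50 from four-parameter fit, mean of three independent tests, with a known LXR agonist as positive control.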

Structure (SMILES)	Emax [fold]	EC50 [nM]
COc1ccc(-c2cccc(C3CC(C(F)(F)C(F)(F)F)=NN3c3ccccc3Cl)c2)cc1OC (stereo not shown) [Example 112, 1-(2-chloro-phenyl)-5-(3′,4′-dimethoxy-biphenyl-3-yl)-3-pentafluoroethyl-4,5-dihydro-1H-pyrazole]	57	8520
CS(=O)(=O)c1ccc(-c2cc(C3CC(C(F)(F)C(F)(F)F)=NN3c3ccc(F)cc3F)ccc2F)cc1 (stereo not shown) [Example 129, 1-(2,4-difluoro-phenyl)-5-(6-fluoro-4′-methanesulfonyl-biphenyl-3-yl)-3-pentafluoroethyl-4,5-dihydro-1H-pyrazole]	44	7990
Fc1ccc(N2N=C(C(F)(F)C(F)(F)F)CC2c2ccc(F)c(-c3ccc(Cl)nc3)c2)c(F)c1 (stereo not shown) [Example 130, 1-(2,4-difluoro-phenyl)-5-[4-fluoro-3-(6-chloro-pyridin-3-yl)-phenyl]-3-pentafluoroethyl-4,5-dihydro-1H-pyrazole]	34	10300
COc1ccc(-c2cc(C3CC(C(F)(F)C(F)(F)F)=NN3c3ccc(F)cc3F)ccc2F)cn1 (stereo not shown) [Example 131, 1-(2,4-difluoro-phenyl)-5-[4-fluoro-3-(6-methoxy-pyridin-3-yl)-phenyl]-3-pentafluoroethyl-4,5-dihydro-1H-pyrazole]	45	12800
CSc1cccc(-c2ccc(F)c(C3CC(C(F)(F)C(F)(F)F)=NN3c3ccc(F)cc3F)c2)c1 (stereo not shown) [Example 138, 1-(2,4-difluoro-phenyl)-5-(4-fluoro-3′-(methylsulfanyl)biphenyl-3-yl)-3-pentafluoroethyl-4,5-dihydro-1H-pyrazole]	153	501
CSc1ccc(-c2ccc(F)c(C3CC(C(F)(F)C(F)(F)F)=NN3c3ccc(F)cc3F)c2)cn1 (stereo not shown) [Example 140, 1-(2,4-difluoro-phenyl)-5-[6-fluoro-3-(6-methylsulfanyl-pyridin-3-yl)-phenyl]-3-pentafluoroethyl-4,5-dihydro-1H-pyrazole]	143	1770
CS(=O)(=O)c1ccc(-c2ccc(F)c(C3CC(C(F)(F)C(F)(F)F)=NN3c3ccc(F)cc3F)c2)cn1 (stereo not shown) [Example 142, 1-(2,4-difluoro-phenyl)-5-[6-fluoro-3-(6-methanesulfonyl-pyridin-3-yl)-phenyl]-3-pentafluoroethyl-4,5-dihydro-1H-pyrazole]	73	181
CS(=O)(=O)N1CCN(c2ccc(F)c(C3CC(C(F)(F)C(F)(F)F)=NN3c3ccc(F)cc3F)c2)CC1 (stereo not shown) [Example 145, 1-(2,4-difluoro)-5-[2-fluoro-5-(4-methanesulfonyl-piperazin-1-yl)-phenyl]-3-pentafluoroethyl-4,5-dihydro-1H-pyrazole]	107	885
O=S(=O)(C1CC1)N1CCN(c2ccc(F)c(C3CC(C(F)(F)C(F)(F)F)=NN3c3ccc(F)cc3F)c2)CC1 (stereo not shown) [Example 146, 1-(2,4-difluoro)-5-[2-fluoro-5-(4-cyclopropanesulfonyl-piperazin-1-yl)-phenyl]-3-pentafluoroethyl-4,5-dihydro-1H-pyrazole]	105	842
CS(=O)(=O)N1CC=C(c2ccc(F)c(C3CC(C(F)(F)C(F)(F)F)=NN3c3ccc(F)cc3F)c2)CC1 (stereo not shown) [Example 149, 1-(2,4-difluoro-phenyl)-5-[2-fluoro-5-(1-methanesulfonyl-1,2,3,6-tetrahydropyridin-4-yl)-phenyl]-3-pentafluoroethyl-4,5-dihydro-1H-pyrazole]	124	303
CS(=O)(=O)c1cccc(-c2cccc(C3CC(C(F)(F)C(F)(F)F)=NN3c3ccccc3Cl)n2)c1 (stereo not shown) [Example 157, 1-(2-chloro-phenyl)-5-[2-(3-methanesulfonyl-phenyl)-pyridin-6-yl]-3-pentafluoroethyl-4,5-dihydro-1H-pyrazole]	96	397
CS(=O)(=O)c1ccc(-c2cncc(C3CC(C(F)(F)C(F)(F)F)=NN3c3ccc(F)cc3F)c2)cc1 (stereo not shown) [Example 162, 1-(2,4-difluoro-phenyl)-5-[3-(4-methanesulfonyl-phenyl)-pyridin-5-yl]-3-pentafluoroethyl-4,5-dihydro-1H-pyrazole]	59	2930
CS(=O)(=O)c1cccc(-c2cncc(C3CC(C(F)(F)C(F)(F)F)=NN3c3ccc(F)cc3F)c2)c1 (stereo not shown) [Example 165, 1-(2,4-difluoro-phenyl)-5-[3-(3-methanesulfonyl-phenyl)-pyridin-5-yl]-3-pentafluoroethyl-4,5-dihydro-1H-pyrazole]	157	225
CS(=O)(=O)c1ccc(-c2cncc(C3CC(C(F)(F)C(F)(F)F)=NN3c3ccc(F)cc3F)c2)cn1 (stereo not shown) [Example 166, 1-(2,4-difluoro-phenyl)-5-[3-(6-methanesulfonyl-pyridin-3-yl)-pyridin-5-yl]-3-pentafluoroethyl-4,5-dihydro-1H-pyrazole]	56	7050
O=S(=O)(C1CC1)N1CC=C(c2cncc(C3CC(C(F)(F)C(F)(F)F)=NN3c3ccc(F)cc3F)c2)CC1 (stereo not shown) [Example 168, 1-(2,4-difluoro-phenyl)-5-[3-(1-cyclopropanesulfonyl-1,2,3,6-tetrahydropyridin-4-yl)-pyridin-5-yl]-3-pentafluoroethyl-4,5-dihydro-1H-pyrazole]	30	6120
CSc1cccc(-c2ccnc(C3CC(C(F)(F)C(F)(F)F)=NN3c3ccc(F)cc3F)c2)c1 (stereo not shown) [Example 172, 1-(2,4-difluoro-phenyl)-5-[4-(3-methylsulfanyl-phenyl)-pyridin-2-yl]-3-pentafluoroethyl-4,5-dihydro-1H-pyrazole]	73	1020
CSc1ccc(-c2ccnc(C3CC(C(F)(F)C(F)(F)F)=NN3c3ccc(F)cc3F)c2)cc1 (stereo not shown) [Example 173, 1-(2,4-difluoro-phenyl)-5-[4-(4-methylsulfanyl-phenyl)-pyridin-2-yl]-3-pentafluoroethyl-4,5-dihydro-1H-pyrazole]	102	2490
CS(=O)(=O)c1ccc(-c2ccnc(C3CC(C(F)(F)C(F)(F)F)=NN3c3ccc(F)cc3F)c2)cc1 (stereo not shown) [Example 174, 1-(2,4-difluoro-phenyl)-5-[4-(4-methanesulfonyl-phenyl)-pyridin-2-yl]-3-pentafluoroethyl-4,5-dihydro-1H-pyrazole]	119	543
CS(=O)(=O)c1cccc(-c2ccnc(C3CC(C(F)(F)C(F)(F)F)=NN3c3ccc(F)cc3F)c2)c1 (stereo not shown) [Example 177, 1-(2,4-difluoro-phenyl)-5-[4-(3-methanesulfonyl-phenyl)-pyridin-2-yl]-3-pentafluoroethyl-4,5-dihydro-1H-pyrazole]	57	26
CS(=O)(=O)c1ccc(-c2ccnc(C3CC(C(F)(F)C(F)(F)F)=NN3c3ccc(F)cc3F)c2)cn1 (stereo not shown) [Example 178, 1-(2,4-difluoro-phenyl)-5-[4-(6-methanesulfonyl-pyridin-3-yl)-pyridin-2-yl]-3-pentafluoroethyl-4,5-dihydro-1H-pyrazole]	82	543
